According to patent US7728028B2, “Substituted imidazoline compounds” (Gruenenthal GmbH, priority 2005, dated 2010):
Where two headings read alike, the source gives them in different places.

Biological target: T1, human μ-opiate receptor (Homo sapiens, UniProt P35372)
T1 construct: purchased PerkinElmer Life Sciences, Zaventem, Belgium RB-HOM; host or cells: CHO-K1 cells (recombinant expression; membrane preparation)
Test: Affinity for the human μ-opiate receptor ([3H]-naloxone displacement, SPA)
Conditions: test substance 1 μmole/l, inhibition of specific [3H]-naloxone binding, CHO-K1 membranes, read-out: μ-Opioid receptor, % inhibition [1 μM]
How it was run: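 CHO-K1 membranes expressing the receptor, incubated 90 min at room temperature with 1 nmol/l [3H]-naloxone and WGA-SPA beads in 50 mmol/l Tris-HCl with 0.06% BSA. Non-specific binding defined with 100 μmol/l naloxone. Value is % inhibition of specific binding at 1 μmol/l test substance.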

T1 sequence (P35372 whole entry): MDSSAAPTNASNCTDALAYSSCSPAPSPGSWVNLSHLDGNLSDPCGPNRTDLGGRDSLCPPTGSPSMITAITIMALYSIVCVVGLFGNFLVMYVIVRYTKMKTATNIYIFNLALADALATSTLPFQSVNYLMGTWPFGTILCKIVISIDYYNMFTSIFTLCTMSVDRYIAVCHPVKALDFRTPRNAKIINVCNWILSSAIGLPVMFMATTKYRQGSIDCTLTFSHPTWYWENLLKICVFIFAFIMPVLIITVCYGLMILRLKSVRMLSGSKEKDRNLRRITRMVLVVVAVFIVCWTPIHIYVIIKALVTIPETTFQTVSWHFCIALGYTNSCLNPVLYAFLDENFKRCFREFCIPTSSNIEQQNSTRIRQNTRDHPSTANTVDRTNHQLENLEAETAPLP

How did the inhibition at 1 µM (Table 2, Examples 11-161) turn out when `COC(=O)C1(C)N=CN(C2CCCCC2)C1CC1CCC(C(c2cccc(F)c2)N(C)C)CC1` (stereo not drawn) [Example 104, 1-cyclohexyl-5-{4-[dimethylamino-(3-fluorophenyl)-methyl]-cyclohexylmethyl}-4-methyl-4,5-dihydro-1H-imidazole-4-carboxylic acid methyl ester] was run?
Its inhibition at 1 µM is 93%.

For `CCC(C)C1(C(=O)OC)N=CN(C2CCCCC2)C1CC1CCC(C(c2ccc(Cl)cc2)N(C)C)CC1` (stereo not drawn) [Example 54, Methyl-4-sec-butyl-5-((4-((4-chlorophenyl)(dimethylamino)methyl)cyclohexyl)methyl)-1-cyclohexyl-4,5-dihydro-1H-imidazole-4-carboxylate], which inhibition at 1 µM (Table 2, Examples 11-161) is on record?
The inhibition at 1 µM was 100%.

With `CCCCN1C=NC(CSCc2ccccc2)(C(=O)OC)C1CC1CCC(C(c2ccc(Cl)cc2)N(C)C)CC1` (stereo not drawn) [Example 90, 4-benzylsulfanylmethyl-1-butyl-5-{4-[(4-chlorophenyl)-dimethylaminomethyl]-cyclohexylmethyl}-4,5-dihydro-1H-imidazole-4-carboxylic acid methyl ester] as the compound, how does the inhibition at 1 µM (Table 2, Examples 11-161) read?
The inhibition at 1 µM was 99%.

Which inhibition at 1 µM (Table 2, Examples 11-161) does the source give for `COC(=O)C1(C)N=CN(Cc2ccccc2)C1CC1CCC(C(c2cccc(F)c2)N(C)C)CC1` (stereo not drawn) [Example 140, 1-benzyl-5-{4-[dimethylamino-(3-fluorophenyl)-methyl]-cyclohexylmethyl}-4-methyl-4,5-dihydro-1H-imidazole-4-carboxylic acid methyl ester] here?
Its inhibition at 1 µM is 98%.

Which inhibition at 1 µM (Table 2, Examples 11-161) does the source give for `COC(=O)CCC1(C(=O)OC)N=CN(Cc2ccccc2)C1CC1CCC(C(c2ccc(F)cc2)N(C)C)CC1` (stereo not drawn) [Example 87, 1-benzyl-5-{4-[dimethylamino-(4-fluorophenyl)-methyl]-cyclohexylmethyl}-4-(2-methoxycarbonylethyl)-4,5-dihydro-1H-imidazole-4-carboxylic acid methyl ester] here?
The inhibition at 1 µM was 95%.

How did the inhibition at 1 µM (Table 2, Examples 11-161) turn out when `CCCC1(C(=O)OC)N=CN(CCc2ccccc2)C1CC1CCC(C(c2cccc(F)c2)N(C)C)CC1` (stereo not drawn) [Example 129, 5-{4-[dimethylamino-(3-fluorophenyl)-methyl]-cyclohexylmethyl}-1-phenethyl-4-propyl-4,5-dihydro-1H-imidazole-4-carboxylic acid methyl ester] was run?
The inhibition at 1 µM was 93%.

`COC(=O)C1(CC(C)C)N=CN(C2CCCCC2)C1CC1CCC(C(c2ccc(Cl)cc2)N(C)C)CC1` (stereo not drawn) [Example 17, 5-{4-[(4-chlorophenyl)-dimethylaminomethyl]-cyclohexylmethyl}-1-cyclohexyl-4-isobutyl-4,5-dihydro-1H-imidazole-4-carboxylic acid methyl ester] was tested. Which inhibition at 1 µM (Table 2, Examples 11-161) did it give?
Its inhibition at 1 µM is 96%.

With `COC(=O)C1(C)N=CN(C2CCCCC2)C1CC1CCC(C(CCc2ccccc2)N(C)C)CC1` (stereo not drawn) [Example 110, 1-cyclohexyl-5-[4-(1-dimethylamino-3-phenylpropyl)-cyclohexylmethyl]-4-methyl-4,5-dihydro-1H-imidazole-4-carboxylic acid methyl ester] as the compound, how does the inhibition at 1 µM (Table 2, Examples 11-161) read?
Its inhibition at 1 µM is 67%.

Which inhibition at 1 µM (Table 2, Examples 11-161) does the source give for `COC(=O)C1(CSCc2ccccc2)N=CN(C2CCCCC2)C1CC1CCC(C(c2cccc(F)c2)N(C)C)CC1` (stereo not drawn) [Example 150, 4-benzylsulfanylmethyl-1-cyclohexyl-5-{4-[dimethylamino-(3-fluorophenyl)-methyl]-cyclohexylmethyl}-4,5-dihydro-1H-imidazole-4-carboxylic acid methyl ester] here?
The inhibition at 1 µM was 98%.

For `CCCN1C=NC(CSC)(C(=O)OC)C1CC1CCC(C(c2cccc(F)c2)N(C)C)CC1` (stereo not drawn) [Example 158, 5-{4-[dimethylamino-(3-fluorophenyl)-methyl]-cyclohexylmethyl}-4-methylsulfanylmethyl-1-propyl-4,5-dihydro-1H-imidazole-4-carboxylic acid methyl ester], which inhibition at 1 µM (Table 2, Examples 11-161) is on record?
Its inhibition at 1 µM is 95%.

How did the inhibition at 1 µM (Table 2, Examples 11-161) turn out when `CCCCN1C=NC(CSCc2ccccc2)(C(=O)OC)C1C1CCC(C(c2cccc(F)c2)N(C)C)CC1` (stereo not drawn) [Example 67, 4-benzylsulfanylmethyl-1-butyl-5-{4-[dimethylamino-(3-fluorophenyl)-methyl]-cyclohexyl}-4,5-dihydro-1H-imidazole-4-carboxylic acid methyl ester] was run?
Its inhibition at 1 µM is 88%.

`CCCCN1C=NC(CSC)(C(=O)OC)C1CC1CCC(C(c2cccc(F)c2)N(C)C)CC1` (stereo not drawn) [Example 74, 1-butyl-5-{4-[dimethylamino-(3-fluorophenyl)-methyl]-cyclohexylmethyl}-4-methylsulfanylmethyl-4,5-dihydro-1H-imidazole-4-carboxylic acid methyl ester] was tested. Which inhibition at 1 µM (Table 2, Examples 11-161) did it give?
The inhibition at 1 µM was 95%.

With `CCCN1C=NC(Cc2ccc(Cl)cc2)(C(=O)OC)C1C1CCC(C(c2cccc(F)c2)N(C)C)CC1` (stereo not drawn) [Example 22, 4-(4-chlorobenzyl)-5-{4-[dimethylamino-(3-fluorophenyl)-methyl]-cyclohexyl}-1-propyl-4,5-dihydro-1H-imidazole-4-carboxylic acid methyl ester] as the compound, how does the inhibition at 1 µM (Table 2, Examples 11-161) read?
The inhibition at 1 µM was 88%.

How did the inhibition at 1 µM (Table 1, aldehydes) turn out when `CN(C)C(c1cccs1)C1CCC(C=O)CC1` (stereo not drawn) [Example 9d, 4-(dimethylaminothiophen-2-yl-methyl)-cyclohexane carbaldehyde] was run?
The inhibition at 1 µM was 69%.

Which inhibition at 1 µM (Table 2, Examples 11-161) does the source give for `COC(=O)CCC1(C(=O)OC)N=CN(Cc2ccccc2)C1C1CCC(C(c2cccc(F)c2)N(C)C)CC1` (stereo not drawn) [Example 95, 1-benzyl-5-{4-[dimethylamino-(3-fluorophenyl)-methyl]-cyclohexyl}-4-(2-methoxycarbonylethyl)-4,5-dihydro-1H-imidazole-4-carboxylic acid methyl ester] here?
The inhibition at 1 µM was 94%.

With `CCCN1C=NC(Cc2ccc(Cl)cc2)(C(=O)OC)C1CC1CCC(C(c2ccc(Cl)cc2)N(C)C)CC1` (stereo not drawn) [Example 27, 4-(4-chlorobenzyl)-5-{4-[(4-chlorophenyl)-dimethylaminomethyl]-cyclohexylmethyl}-1-propyl-4,5-dihydro-1H-imidazole-4-carboxylic acid methyl ester] as the compound, how does the inhibition at 1 µM (Table 2, Examples 11-161) read?
The inhibition at 1 µM was 96%.

How did the inhibition at 1 µM (Table 2, Examples 11-161) turn out when `CCCCN1C=NC(C)(C(=O)OC)C1CC1CCC(C(c2cccc(F)c2)N(C)C)CC1` (stereo not drawn) [Example 124, 1-butyl-5-{4-[dimethylamino-(3-fluorophenyl)-methyl]-cyclohexylmethyl}-4-methyl-4,5-dihydro-1H-imidazole-4-carboxylic acid methyl ester] was run?
The inhibition at 1 µM was 95%.

`COC(=O)C1(C)N=CN(Cc2ccccc2)C1CC1CCC(C(CCc2ccccc2)N(C)C)CC1` (stereo not drawn) [Example 146, 1-benzyl-5-[4-(1-dimethylamino-3-phenylpropyl)-cyclohexylmethyl]-4-methyl-4,5-dihydro-1H-imidazole-4-carboxylic acid methyl ester] was tested. Which inhibition at 1 µM (Table 2, Examples 11-161) did it give?
Its inhibition at 1 µM is 79%.

How did the inhibition at 1 µM (Table 2, Examples 11-161) turn out when `COC(=O)C1(Cc2ccc(Cl)cc2)N=CN(C2CCCCC2)C1C1CCC(C(c2ccc(Cl)cc2)N(C)C)CC1` (stereo not drawn) [Example 15, 4-(4-chlorobenzyl)-5-{4-[(4-chlorophenyl)-dimethylaminomethyl]-cyclohexyl}-1-cyclohexyl-4,5-dihydro-1H-imidazole-4-carboxylic acid methyl ester] was run?
Its inhibition at 1 µM is 76%.

Which inhibition at 1 µM (Table 2, Examples 11-161) does the source give for `CCCCN1C=NC(CCC(=O)OC)(C(=O)OC)C1C1CCC(C(c2cccc(F)c2)N(C)C)CC1` (stereo not drawn) [Example 65, 1-butyl-5-{4-[dimethylamino-(3-fluorophenyl)-methyl]-cyclohexyl}-4-(2-methoxycarbonylethyl)-4,5-dihydro-1H-imidazole-4-carboxylic acid methyl ester] here?
Its inhibition at 1 µM is 78%.

How did the inhibition at 1 µM (Table 1, aldehydes) turn out when `CN(C)C(c1ccc(Cl)cc1)C1CCC(C=O)CC1` (stereo not drawn) [Example 9c, 4-[(4-chlorophenyl)-dimethylaminomethyl]-cyclohexane-carbaldehyde] was run?
The inhibition at 1 µM was 45%.

With `CCCCN1C=NC(Cc2ccc(Cl)cc2)(C(=O)OC)C1C1CCC(C(c2cccc(F)c2)N(C)C)CC1` (stereo not drawn) [Example 30, 1-butyl-4-(4-chlorobenzyl)-5-{4-[dimethylamino-(3-fluorophenyl)-methyl]-cyclohexyl}-4,5-dihydro-1H-imidazole-4-carboxylic acid methyl ester] as the compound, how does the inhibition at 1 µM (Table 2, Examples 11-161) read?
Its inhibition at 1 µM is 89%.

`COC(=O)C1(C)N=CN(C2CCCCC2)C1CC1CCC(C(c2ccc(F)cc2)N(C)C)CC1` (stereo not drawn) [Example 107, 1-cyclohexyl-5-{4-[dimethylamino-(4-fluorophenyl)-methyl]-cyclohexylmethyl}-4-methyl-4,5-dihydro-1H-imidazole-4-carboxylic acid methyl ester] was tested. Which inhibition at 1 µM (Table 2, Examples 11-161) did it give?
The inhibition at 1 µM was 87%.

For `CCCN1C=NC(CSCc2ccccc2)(C(=O)OC)C1CC1CCC(C(c2ccc(Cl)cc2)N(C)C)CC1` (stereo not drawn) [Example 64, 4-benzylsulfanylmethyl-5-{4-[(4-chlorophenyl)-dimethylaminomethyl]-cyclohexylmethyl}-1-propyl-4,5-dihydro-1H-imidazole-4-carboxylic acid methyl ester], which inhibition at 1 µM (Table 2, Examples 11-161) is on record?
Its inhibition at 1 µM is 98%.

`COC(=O)C1(CSCc2ccccc2)N=CN(CCc2ccccc2)C1C1CCC(C(c2ccc(Cl)cc2)N(C)C)CC1` (stereo not drawn) [Example 93, 4-benzylsulfanylmethyl-5-{4-[(4-chlorophenyl)-dimethylaminomethyl]-cyclohexyl}-1-phenethyl-4,5-dihydro-1H-imidazole-4-carboxylic acid methyl ester] was tested. Which inhibition at 1 µM (Table 2, Examples 11-161) did it give?
The inhibition at 1 µM was 92%.

Which inhibition at 1 µM (Table 2, Examples 11-161) does the source give for `COC(=O)C1(CSCc2ccccc2)N=CN(C2CCCCC2)C1CC1CCC(C(CCc2ccccc2)N(C)C)CC1` (stereo not drawn) [Example 156, 4-benzylsulfanylmethyl-1-cyclohexyl-5-[4-(1-dimethylamino-3-phenylpropyl)-cyclohexylmethyl]-4,5-dihydro-1H-imidazole-4-carboxylic acid methyl ester] here?
Its inhibition at 1 µM is 92%.

Which inhibition at 1 µM (Table 2, Examples 11-161) does the source give for `COC(=O)C1(CC(C)C)N=CN(C2CCCCC2)C1C1CCC(C(c2ccc(Cl)cc2)N(C)C)CC1` (stereo not drawn) [Example 14, 5-{4-[(4-chlorophenyl)-dimethylaminomethyl]-cyclohexyl}-1-cyclohexyl-4-isobutyl-4,5-dihydro-1H-imidazole-4-carboxylic acid methyl ester] here?
Its inhibition at 1 µM is 92%.
